Literature values as cited in patent US20230349886A1, “SYSTEMS AND METHODS FOR PREDICTING CARDIOTOXICITY OF MOLECULAR PARAMETERS OF A COMPOUND BASED ON MACHINE LEARNING ALGORITHMS” (UTI Limited Partnership, priority 2015, published 2023).
Read-outs that look alike come from different tables or passages of the source. Peptide text beside a SMILES is read from it.

Tests used:
[1] = Brown dataset; flag given as 1 or 0
[2] = for Free drug: experimental data file, Kramer et al. 2013
hERG = hERG (Homo sapiens, UniProt Q12809); conditions: for HERG-maxinhib: maximal inhibition
Cav1.2 = Cav1.2 (Homo sapiens, UniProt Q13936); conditions: for CAV1p2-maxinhib: maximal inhibition
Nav1.5 [3] = molecular target: T1, Nav1.5 (Homo sapiens, UniProt Q14524)
Nav1.5 [4] = molecular target: T1, Nav1.5; conditions: Nav1.5 training/test/validation set; 92 actives and 860 inactive compounds; 1 = active
Nav1.5 [5] = molecular target: Nav1.5 (Homo sapiens, UniProt Q14524, S234P/V215L)
[6] = read-out: CAV1.2 IC50, Brown dataset
[7] = read-out: NAV1.5 IC50, Brown dataset
[8] = Table 11, calculated from HERG-IC50 of the Kramer et al. 2013 data
[9] = read-out: HERG IC50, Brown dataset
[10] = Brown dataset, negative log of free drug concentration
[11] = experimental data, Kramer et al. 2013
[12] = read-out: HERG-IC50, experimental data, Kramer et al. 2013
[13] = read-out: CAV1p2-IC50, experimental data, Kramer et al. 2013
[14] = maximal inhibition, Kramer et al. 2013
[15] = read-out: NAV1p5-IC50, experimental data, Kramer et al. 2013

hERG, sequence (Q12809 whole entry): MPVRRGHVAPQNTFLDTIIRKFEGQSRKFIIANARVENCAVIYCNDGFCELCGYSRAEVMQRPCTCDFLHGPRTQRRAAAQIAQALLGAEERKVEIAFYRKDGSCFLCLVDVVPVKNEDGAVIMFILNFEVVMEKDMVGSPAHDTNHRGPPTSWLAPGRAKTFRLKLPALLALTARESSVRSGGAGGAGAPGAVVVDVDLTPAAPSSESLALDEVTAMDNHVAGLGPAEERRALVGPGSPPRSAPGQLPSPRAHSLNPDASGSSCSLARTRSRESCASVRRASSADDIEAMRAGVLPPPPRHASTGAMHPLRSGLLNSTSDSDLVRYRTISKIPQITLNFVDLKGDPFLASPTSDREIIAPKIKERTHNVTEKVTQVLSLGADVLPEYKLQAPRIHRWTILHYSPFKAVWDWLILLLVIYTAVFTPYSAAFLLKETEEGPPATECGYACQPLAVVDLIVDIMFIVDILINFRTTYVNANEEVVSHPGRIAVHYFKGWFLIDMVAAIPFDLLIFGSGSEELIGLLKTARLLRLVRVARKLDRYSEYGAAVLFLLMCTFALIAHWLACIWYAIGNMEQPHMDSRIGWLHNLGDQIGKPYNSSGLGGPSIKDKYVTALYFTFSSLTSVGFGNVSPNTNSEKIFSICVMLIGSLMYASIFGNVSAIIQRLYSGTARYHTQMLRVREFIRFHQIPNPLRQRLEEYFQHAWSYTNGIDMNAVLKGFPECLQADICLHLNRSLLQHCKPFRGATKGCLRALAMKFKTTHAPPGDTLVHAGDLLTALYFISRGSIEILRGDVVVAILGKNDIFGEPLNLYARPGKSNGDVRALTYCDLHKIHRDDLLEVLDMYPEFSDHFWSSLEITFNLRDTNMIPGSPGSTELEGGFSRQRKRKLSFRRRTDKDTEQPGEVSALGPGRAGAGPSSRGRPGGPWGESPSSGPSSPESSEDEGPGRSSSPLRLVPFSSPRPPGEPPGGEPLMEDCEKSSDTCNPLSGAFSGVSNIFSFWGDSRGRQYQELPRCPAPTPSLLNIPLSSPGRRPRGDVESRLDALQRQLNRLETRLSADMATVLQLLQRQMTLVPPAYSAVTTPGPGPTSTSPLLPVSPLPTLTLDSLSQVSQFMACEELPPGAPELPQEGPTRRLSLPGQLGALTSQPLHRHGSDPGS
Cav1.2, sequence (Q13936 1-2138 isoform Q13936-12): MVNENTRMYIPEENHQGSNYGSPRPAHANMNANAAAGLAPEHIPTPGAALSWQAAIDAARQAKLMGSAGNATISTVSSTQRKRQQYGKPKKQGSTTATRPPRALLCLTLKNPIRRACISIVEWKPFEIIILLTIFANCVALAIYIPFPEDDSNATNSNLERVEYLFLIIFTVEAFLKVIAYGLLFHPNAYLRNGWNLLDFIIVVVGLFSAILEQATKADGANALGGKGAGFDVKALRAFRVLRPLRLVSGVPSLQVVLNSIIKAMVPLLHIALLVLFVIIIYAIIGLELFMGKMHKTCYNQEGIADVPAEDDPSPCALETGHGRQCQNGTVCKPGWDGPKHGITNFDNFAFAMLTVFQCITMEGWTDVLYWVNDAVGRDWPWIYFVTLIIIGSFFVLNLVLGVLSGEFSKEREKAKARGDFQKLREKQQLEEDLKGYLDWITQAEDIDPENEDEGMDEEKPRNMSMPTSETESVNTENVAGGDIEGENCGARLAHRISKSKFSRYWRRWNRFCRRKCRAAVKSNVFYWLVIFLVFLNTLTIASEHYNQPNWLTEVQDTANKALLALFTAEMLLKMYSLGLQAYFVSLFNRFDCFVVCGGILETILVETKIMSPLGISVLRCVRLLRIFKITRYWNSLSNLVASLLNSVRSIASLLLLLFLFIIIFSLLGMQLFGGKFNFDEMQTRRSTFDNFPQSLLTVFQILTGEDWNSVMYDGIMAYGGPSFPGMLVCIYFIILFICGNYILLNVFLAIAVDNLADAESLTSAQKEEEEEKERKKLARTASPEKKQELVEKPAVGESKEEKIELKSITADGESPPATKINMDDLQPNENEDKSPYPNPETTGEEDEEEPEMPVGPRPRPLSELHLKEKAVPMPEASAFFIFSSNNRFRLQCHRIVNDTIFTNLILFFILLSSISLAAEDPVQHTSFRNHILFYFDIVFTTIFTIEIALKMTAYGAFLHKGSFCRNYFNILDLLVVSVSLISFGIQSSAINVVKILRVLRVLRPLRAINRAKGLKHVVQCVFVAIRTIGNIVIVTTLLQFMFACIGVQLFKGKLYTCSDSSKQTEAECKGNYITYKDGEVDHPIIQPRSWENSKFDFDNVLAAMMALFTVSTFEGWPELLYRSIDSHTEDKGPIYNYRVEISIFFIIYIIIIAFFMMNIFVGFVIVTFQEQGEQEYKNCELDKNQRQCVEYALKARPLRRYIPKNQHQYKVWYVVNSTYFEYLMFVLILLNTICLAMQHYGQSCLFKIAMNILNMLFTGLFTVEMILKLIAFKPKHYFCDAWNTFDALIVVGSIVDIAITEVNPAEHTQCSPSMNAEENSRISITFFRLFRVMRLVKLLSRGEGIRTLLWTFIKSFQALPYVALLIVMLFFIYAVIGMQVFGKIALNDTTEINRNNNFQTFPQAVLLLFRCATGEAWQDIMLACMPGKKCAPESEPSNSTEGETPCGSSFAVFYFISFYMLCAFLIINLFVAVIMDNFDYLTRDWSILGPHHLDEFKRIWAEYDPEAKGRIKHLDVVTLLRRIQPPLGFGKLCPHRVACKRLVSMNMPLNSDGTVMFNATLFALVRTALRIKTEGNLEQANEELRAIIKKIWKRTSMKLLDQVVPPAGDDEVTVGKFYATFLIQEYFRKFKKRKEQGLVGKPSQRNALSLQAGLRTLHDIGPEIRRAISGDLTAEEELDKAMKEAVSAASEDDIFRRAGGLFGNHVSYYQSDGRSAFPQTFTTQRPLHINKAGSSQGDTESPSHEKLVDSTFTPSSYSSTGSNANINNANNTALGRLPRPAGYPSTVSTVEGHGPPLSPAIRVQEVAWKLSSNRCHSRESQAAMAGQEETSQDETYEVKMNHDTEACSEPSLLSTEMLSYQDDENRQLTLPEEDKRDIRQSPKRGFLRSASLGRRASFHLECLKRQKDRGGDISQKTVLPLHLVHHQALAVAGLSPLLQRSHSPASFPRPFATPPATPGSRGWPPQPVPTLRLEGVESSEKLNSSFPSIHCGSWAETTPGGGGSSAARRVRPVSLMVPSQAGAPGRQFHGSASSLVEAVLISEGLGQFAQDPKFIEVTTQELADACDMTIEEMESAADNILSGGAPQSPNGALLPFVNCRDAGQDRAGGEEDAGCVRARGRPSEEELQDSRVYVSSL
Cav1.2, sequence (Q08289 whole entry partner): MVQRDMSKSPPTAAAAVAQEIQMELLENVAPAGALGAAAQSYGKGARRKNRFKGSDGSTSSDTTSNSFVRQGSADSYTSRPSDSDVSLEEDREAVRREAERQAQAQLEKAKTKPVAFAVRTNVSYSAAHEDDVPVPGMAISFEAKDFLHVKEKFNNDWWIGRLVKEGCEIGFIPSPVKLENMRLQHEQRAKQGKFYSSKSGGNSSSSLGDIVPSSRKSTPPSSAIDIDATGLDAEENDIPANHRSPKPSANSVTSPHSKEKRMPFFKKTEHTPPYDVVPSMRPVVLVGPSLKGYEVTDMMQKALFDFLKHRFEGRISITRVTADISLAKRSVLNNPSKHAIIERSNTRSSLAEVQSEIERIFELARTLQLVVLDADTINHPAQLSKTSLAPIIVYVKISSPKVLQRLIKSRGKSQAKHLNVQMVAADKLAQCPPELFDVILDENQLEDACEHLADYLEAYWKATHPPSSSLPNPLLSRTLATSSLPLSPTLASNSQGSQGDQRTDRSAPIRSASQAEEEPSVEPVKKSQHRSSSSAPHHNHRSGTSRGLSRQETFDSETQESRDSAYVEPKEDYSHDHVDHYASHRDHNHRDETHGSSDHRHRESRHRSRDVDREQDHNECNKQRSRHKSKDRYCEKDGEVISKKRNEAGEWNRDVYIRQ
Cav1.2, sequence (P54289 25-946 partner limits assumed): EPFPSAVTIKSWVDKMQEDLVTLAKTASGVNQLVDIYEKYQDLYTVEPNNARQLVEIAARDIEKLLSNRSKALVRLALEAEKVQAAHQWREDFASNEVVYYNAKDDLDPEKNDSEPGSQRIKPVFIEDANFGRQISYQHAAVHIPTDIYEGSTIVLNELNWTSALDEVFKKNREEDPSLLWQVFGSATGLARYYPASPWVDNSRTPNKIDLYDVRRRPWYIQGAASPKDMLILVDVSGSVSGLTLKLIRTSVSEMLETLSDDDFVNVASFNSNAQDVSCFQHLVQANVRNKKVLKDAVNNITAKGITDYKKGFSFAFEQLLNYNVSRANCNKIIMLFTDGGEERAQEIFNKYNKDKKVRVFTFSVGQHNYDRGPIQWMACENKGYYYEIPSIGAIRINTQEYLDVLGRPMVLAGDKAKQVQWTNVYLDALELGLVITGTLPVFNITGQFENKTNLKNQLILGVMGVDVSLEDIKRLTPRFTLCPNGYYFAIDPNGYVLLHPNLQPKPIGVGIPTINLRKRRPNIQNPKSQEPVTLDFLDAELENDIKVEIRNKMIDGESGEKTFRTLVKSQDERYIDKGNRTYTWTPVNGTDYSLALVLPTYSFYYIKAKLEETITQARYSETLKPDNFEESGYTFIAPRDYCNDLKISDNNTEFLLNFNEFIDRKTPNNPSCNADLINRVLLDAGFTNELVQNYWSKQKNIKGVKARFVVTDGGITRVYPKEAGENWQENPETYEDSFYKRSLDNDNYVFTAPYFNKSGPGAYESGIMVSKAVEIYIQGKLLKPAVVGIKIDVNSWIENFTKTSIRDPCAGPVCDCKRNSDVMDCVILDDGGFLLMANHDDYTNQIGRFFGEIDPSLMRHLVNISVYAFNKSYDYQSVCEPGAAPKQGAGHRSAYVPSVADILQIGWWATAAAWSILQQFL
Cav1.2, sequence (P54289 947-1103 partner limits assumed): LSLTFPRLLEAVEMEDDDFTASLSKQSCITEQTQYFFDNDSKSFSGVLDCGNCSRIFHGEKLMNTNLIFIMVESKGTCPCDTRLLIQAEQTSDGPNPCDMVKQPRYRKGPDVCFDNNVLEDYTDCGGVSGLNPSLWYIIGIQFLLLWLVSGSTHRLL

Compound: COc1ccc(CCN2CCC(Nc3nc4ccccc4n3Cc3ccc(F)cc3)CC2)cc1 [astemizole]
- Ris (TdP risk flag) [1]: 1
- Free drug [2]: 0.0003 µM
- pFD ([2]; negative log of free drug): 9.523

Compound: C[C@@H]1CN(c2c(F)c(N)c3c(=O)c(C(=O)O)cn(C4CC4)c3c2F)C[C@H](C)N1 [sparfloxacin]
- HERG maxInhib (hERG): 81.5
- HERG pIC50 (hERG): 4.656 726
- IC50 (hERG): 22.1 µM
- pIC50 (hERG): 4.656
- CAV1.2 max inhib (Cav1.2; Brown dataset): 50.3
- IC50 (Cav1.2; [6]): 88.8 µM
- NAV1.5 max inhib (Nav1.5 [3]; Brown dataset): 0.8
- IC50 (Nav1.5 [3]; [7]): 2560 µM
- Ris (TdP risk flag) [1]: 1

Compound: CC(C)[C@H](NC(=O)CN)C(=O)N[C@@H](CCC(N)=O)C(=O)O [CHEMBL123454] (H-Gly-Val-Gln-OH)
- activity (Nav1.5 [4]): 1

Compound: NC(=O)c1ncn([C@@H]2O[C@H](CO)[C@@H](O)[C@H]2O)n1 [ribavirin]
- HERG maxInhib (hERG; Brown dataset): 21.4
- pIC50 (hERG; [8]): 3.015
- IC50 (hERG; [9]): 967 µM
- CAV1.2 max inhib (Cav1.2; Brown dataset): 31.9
- IC50 (Cav1.2; [6]): 622 µM
- NAV1.5 max inhib (Nav1.5 [3]; Brown dataset): 6.9
- IC50 (Nav1.5 [3]; [7]): 3000 µM
- Ris (TdP risk flag) [1]: 0

Compound: NC(=S)Nc1cccc(OCCCCCN2CCN(c3ccccc3-c3ccccc3)C2=S)c1 [CHEMBL569085]
- activity (Nav1.5 [4]): Found 92 actives and 860 inactive compounds. 952 CHEMBL569085 1

Compound: CCCCCC=C(c1cc(C)c(OC)c(C(=O)OC)c1)c1cc(C)c(OC)c(C(=O)OC)c1 [CHEMBL335768]
- activity (Nav1.5 [4]): 1

Compound: CC(C)COCC(CN(Cc1ccccc1)c1ccccc1)N1CCCC1 (stereo not shown) [bepridil]
- CAV1.2 max inhib (Cav1.2; Brown dataset): 95.7
- CAV1p2-maxinhib (Cav1.2; Kramer et al. 2013): 95.7
- IC50 (Nav1.5 [3]): 2.3 µM
- NAV1p5-maxinhib (Nav1.5 [3]): 100
- NAV1p5-pIC50 (Nav1.5 [3]): 5.638
- NAV1.5 max inhib (Nav1.5 [3]): 100
- NAV1.5 pIC50 (Nav1.5 [5]): 5.6382 164
- Ris (TdP risk flag) [1]: 1
- Free drug [2]: 0.035 µM
- pFD ([2]; negative log of free drug): 7.456

Compound: CC(=O)NC[C@H]1CN(c2ccc(N3CCOCC3)c(F)c2)C(=O)O1 [linezolid]
- HERG maxInhib (hERG; Brown dataset): 19.3
- pIC50 (hERG; [8]): 2.94
- IC50 (hERG; [9]): 1150 µM
- CAV1.2 max inhib (Cav1.2; Brown dataset): 70.3
- IC50 (Cav1.2; [6]): 105 µM
- NAV1.5 max inhib (Nav1.5 [3]; Brown dataset): 9.6
- IC50 (Nav1.5 [3]; [7]): 2640 µM
- Ris (TdP risk flag) [1]: 0

Compound: CCCCc1oc2ccccc2c1C(=O)c1cc(I)c(OCCN(CC)CC)c(I)c1 [amiodarone]
- Free drug [2]: 0.0008 µM
- pFD ([2]; negative log of free drug): 9.097

Compound: CCCCCCCN(CC)CCCC(O)c1ccc(NS(C)(=O)=O)cc1 (stereo not shown) [ibutilide]
- CAV1.2 max inhib (Cav1.2; Brown dataset): 85.2
- CAV1.2 pIC50 (Cav1.2; Brown dataset): 4.2041
- IC50 (Cav1.2; [6]): 62.5 µM
- NAV1.5 max inhib (Nav1.5 [3]; Brown dataset): 87.9
- IC50 (Nav1.5 [3]; [7]): 42.5 µM
- NAV1.5 pIC50 (Nav1.5 [5]; Brown dataset): 4.3716
- Ris (TdP risk flag) [1]: 1
- Free drug concentration ([2]; Brown dataset): 140 nM
- pFD [2, 10]: 6.853

Compound: chlorpromazine
- pIC50 (hERG; [8]): 5.824
- HERG-pIC50 (hERG; [11]): 5.824
- HERG-maxinhib (hERG; Kramer et al. 2013): 96.7
- IC50 (hERG; [12]): 1.5 µM
- CAV1p2-pIC50 (Cav1.2; [11]): 5.469
- CAV1p2-maxinhib (Cav1.2; Kramer et al. 2013): 99.2
- IC50 (Cav1.2; [13]): 3.4 µM
- NAV1p5-pIC50 (Nav1.5 [3]; [11]): 5.523
- NAV1p5-maxinhib (Nav1.5 [3]; [14]): 97.1
- IC50 (Nav1.5 [3]; [15]): 3 µM
- Free drug [2]: 0.038 µM
- pFD ([2]; negative log of free drug): 7.42

Compound: Cc1nc2n(c(=O)c1CCN1CCC(c3noc4cc(F)ccc34)CC1)CCCC2 [risperidone]
- HERG maxInhib (hERG; Brown dataset): 79.7
- Ris (TdP risk flag) [1]: 1
- Free drug concentration ([2]; Brown dataset): 0 nM

Compound: CCC(=O)C(CC(C)N(C)C)(c1ccccc1)c1ccccc1 (stereo not shown) [methadone]
- HERG maxInhib (hERG; Brown dataset): 91.6
- pIC50 (hERG; [8]): 5.456
- IC50 (hERG; [9]): 3.5 µM
- CAV1.2 max inhib (Cav1.2; Brown dataset): 96.9
- NAV1.5 max inhib (Nav1.5 [3]; Brown dataset): 100
- IC50 (Nav1.5 [3]; [7]): 31.8 µM
- Ris (TdP risk flag) [1]: 1

Compound: Fc1ccc([C@@H]2CCNC[C@H]2COc2ccc3c(c2)OCO3)cc1 [paroxetine]
- HERG maxInhib (hERG; Brown dataset): 99.5
- CAV1.2 max inhib (Cav1.2): 98.5
- CAV1.2 pIC50 (Cav1.2): 5.409 393
- IC50 (Cav1.2): 3.9 µM
- IC50 (Nav1.5 [3]): 9.8 µM
- NAV1.5 max inhib (Nav1.5 [3]): 93.7
- NAV1.5 pIC50 (Nav1.5 [5]): 5.009 924
- Ris (TdP risk flag) [1]: 1

Compound: cilostazol
- HERG maxInhib (hERG; Brown dataset): 65.9
- pIC50 (hERG; [8]): 4.86
- IC50 (hERG; [9]): 13.8 µM
- CAV1.2 max inhib (Cav1.2; Brown dataset): 24.6
- IC50 (Cav1.2; [6]): 91.2 µM
- NAV1.5 max inhib (Nav1.5 [3]; Brown dataset): 22.9
- IC50 (Nav1.5 [3]; [7]): 93.7 µM
- Ris (TdP risk flag) [1]: 1

Compound: N[C@@H](CC(=O)N1CCn2c(nnc2C(F)(F)F)C1)Cc1cc(F)c(F)cc1F [sitagliptin]
- HERG maxInhib (hERG; Brown dataset): 35.6
- CAV1.2 max inhib (Cav1.2; Brown dataset): 35.8
- IC50 (Cav1.2; [6]): 147 µM
- NAV1.5 max inhib (Nav1.5 [3]; Brown dataset): 18.3
- IC50 (Nav1.5 [3]; [7]): 1220 µM
- Ris (TdP risk flag) [1]: 0

Compound: CCOC(=O)C1=C(C)NC(C)=C(C(=O)OC)C1c1cccc([N+](=O)[O-])c1 (stereo not shown) [nitrendipine]
- HERG maxInhib (hERG; Brown dataset): 68.3
- pIC50 (hERG; [8]): 4.609
- IC50 (hERG; [9]): 24.6 µM
- CAV1.2 max inhib (Cav1.2; Brown dataset): 74.6
- NAV1.5 max inhib (Nav1.5 [3]; Brown dataset): 86.3
- IC50 (Nav1.5 [3]; [7]): 21.6 µM
- Ris (TdP risk flag) [1]: 0

Compound: CCCC(C)C1(CC)C(=O)NC(=O)NC1=O (stereo not shown) [pentobarbital]
- HERG maxInhib (hERG): 39.5
- HERG pIC50 (hERG): 2.843 135
- IC50 (hERG): 1430 µM
- pIC50 (hERG): 2.843
- CAV1.2 max inhib (Cav1.2; Brown dataset): 82.1
- IC50 (Cav1.2; [6]): 299 µM
- NAV1.5 max inhib (Nav1.5 [3]; Brown dataset): 9
- IC50 (Nav1.5 [3]; [7]): 2690 µM
- Ris (TdP risk flag) [1]: 0

Compound: CCCCCC=C(c1cc(Cl)c(OC)c(C(=O)O)c1)c1cc(Cl)c(OC)c(C(=O)O)c1 [CHEMBL111622]
- activity (Nav1.5 [4]): 1

Compound: O=C1NC(=O)C(c2ccccc2)(c2ccccc2)N1 [phenytoin]
- HERG maxInhib (hERG): 16.4
- CAV1.2 max inhib (Cav1.2; Brown dataset): 91.7
- IC50 (Cav1.2; [6]): 21.9 µM
- NAV1.5 max inhib (Nav1.5 [3]; Brown dataset): 59.3
- IC50 (Nav1.5 [3]; [7]): 72.4 µM
- Ris (TdP risk flag) [1]: 0
- Free drug concentration ([2]; Brown dataset): 4360 nM

Compound: Cc1nc(Nc2ncc(C(=O)Nc3c(C)cccc3Cl)s2)cc(N2CCN(CCO)CC2)n1 [dasatinib]
- HERG maxInhib (hERG; Brown dataset): 86.6
- CAV1.2 max inhib (Cav1.2; Brown dataset): 52.2
- NAV1.5 max inhib (Nav1.5 [3]; Brown dataset): 58.9
- Ris (TdP risk flag) [1]: 0
- pFD [2, 10]: 1.387 ^-1614

Compound: CO/N=C(\C(=O)N[C@@H]1C(=O)N2C(C(=O)O)=C(CSc3nc(=O)c(=O)[nH]n3C)CS[C@H]12)c1csc(N)n1 [ceftriaxone]
- HERG maxInhib (hERG; Brown dataset): 7.5
- pIC50 (hERG; [8]): 3.351
- HERG-pIC50 (hERG; [11]): 3.351
- HERG-maxinhib (hERG; Kramer et al. 2013): 7.5
- IC50 (hERG; [9]): 445 µM
- IC50 (hERG; [12]): 446 µM
- CAV1.2 max inhib (Cav1.2; Brown dataset): 38.8
- CAV1p2-pIC50 (Cav1.2; [11]): 3.813
- CAV1p2-maxinhib (Cav1.2; Kramer et al. 2013): 38.8
- IC50 (Cav1.2; [13]): 154 µM
- IC50 (Cav1.2; [6]): 154 µM
- NAV1.5 max inhib (Nav1.5 [3]; Brown dataset): 14.3
- NAV1p5-pIC50 (Nav1.5 [3]; [11]): 3.255
- NAV1p5-maxinhib (Nav1.5 [3]; [14]): 14.3
- IC50 (Nav1.5 [3]; [15]): 556 µM
- IC50 (Nav1.5 [3]; [7]): 555 µM
- Ris (TdP risk flag) [1]: 0
- Free drug [2]: 23.17 µM
- pFD ([2]; negative log of free drug): 4.635

Compound: CNCC[C@H](Oc1cccc2ccccc12)c1cccs1 [duloxetine]
- HERG maxInhib (hERG): 96.3
- CAV1.2 max inhib (Cav1.2; Brown dataset): 99.8
- IC50 (Cav1.2; [6]): 2.8 µM
- NAV1.5 max inhib (Nav1.5 [3]): 100
- IC50 (Nav1.5 [3]; read-out: NAV1.5 IC50): 5.1 µM
- Ris (TdP risk flag) [1]: 0

Compound: O=C(O)CCCCCC/C=C/CO [CHEMBL458520]
- activity (Nav1.5 [4]): 1
